Tested on: patients with advanced solid tumors
Assay: Phase Ia safety, tolerability, DLT/MTD (TRAEs graded by NCI-CTCAE v4.03)
Type: in vivo
Description: This is a phase I clinical study (ClinicalTrials.gov identifier: NCT03544905), including a phase Ia study of oral CYH33 monotherapy in patients with advanced solid tumors, and a phase Ib study of oral CYH33 monotherapy focused on several specific tumors. […] The phase Ia study included dose-escalation stage and dose-expansion stage. […] The secondary outcomes also included evaluation of changes in PD biomarkers in response to CYH33 treatment (including proteomics of blood specimens at baseline and during treatment, immunocyte subpopulation ratios and molecular markers, cell free DNA in peripheral blood, and blood glucose). However, in compliance with the local human genetic resource regulations and procedures, peripheral blood samples were not obtained for PD biomarker analysis, therefore, only fasting blood glucose was obtained and used as a PD biomarker for CYH33 treatment. The exploratory objective was the relationship between the efficacy of CYH33 treatment and tumor biomarker status.
An accelerated titration design (ATD) and an mTPI-2 design were adopted to guide toxicity monitoring and dose escalation. The target DLT rate was 30%, with the acceptable toxicity probability interval of (0.25, 0.35). For the first two preset doses of 1 mg and 5 mg CYH33 in the ATD phase, if there were no grade ≥2 TRAEs during the DLT observation period, 100% dose escalation was allowed in the subsequent dose group. After entering the mTPI-2 phase, the SMC guidance was followed to determine the dose level, dosing frequency, and number of subjects in the next dose group, based on the previously obtained safety and PK data for that dose group. If necessary, it was permitted to add an additional dose level between two explored dose levels for further investigation.
During the phase Ia study, the safe and probably effective dose will be delivered to the expansion cohort to further investigate the safety, tolerability and efficacy of this dose level, while the dose escalation study can be continued simultaneously. If necessary, it is permitted to insert a new dose level between two explored dose levels for exploration. The subjects to be enrolled in the expansion cohort are patients with advanced solid tumors with PIK3CA gene mutations. When there are two or more dose groups at dose expansion simultaneously, the allocation ratio of the number of subjects in each dose group should be as close as possible to the ratio of ORR in each dose group. In principle, when the cumulative ORR at a certain dose level is <10%, the number of subjects in this dose group will be determined by the SMC. A total of approximately 60 patients are expected to be enrolled in the whole phase Ia study.
The secondary endpoints included preliminary efficacy assessments based on ORR, PFS, DoR, DCR, and clinical benefit rate, assessed per RECIST 1.1,PK parameters for CYH33 and its metabolite I27, and changes in PD biomarkers in response to CYH33 treatment.

For COC(=O)Nc1cc(C(F)(F)F)c(-c2nc(N3CCOCC3)c3cc(CN4CCN(S(C)(=O)=O)CC4)cn3n2)cn1 [CYH33, methyl (5-(6-((4-(methylsulfonyl)piperazin-1-yl)methyl)−4-morpholinopyrrolo[2,1-f][1,2,4]triazin-2-yl)−4-(trifluoromethyl)pyridin-2-yl)carbamate], the “Blood glucose increased, Grade ≥ 3 TRAE” value (30 mg QD, n = 12) was 0 n (%), the “Decreased appetite, Grade ≥ 3 TRAE” value (30 mg QD, n = 12) was 0 n (%) and the “Decreased appetite, all-grade TRAE” value (30 mg QD, n = 12) was 4 (33.3) n (%). For the same compound, the “Diabetic ketosis, Grade ≥ 3 TRAE” value (30 mg QD, n = 12) was 1 (8.3) n (%), the “Diarrhea, Grade ≥ 3 TRAE” value (30 mg QD, n = 12) was 0 n (%) and the “Diarrhea, all-grade TRAE” value (30 mg QD, n = 12) was 2 (16.7) n (%). The “Dizziness, Grade ≥ 3 TRAE” value (30 mg QD, n = 12) was 0 n (%), the “Electrocardiogram QT prolonged, Grade ≥ 3 TRAE” value (from here on “Electrocardiogram QT prolonged”) (30 mg QD, n = 12) was 0 n (%) and the “Face oedema, Grade ≥ 3 TRAE” value (30 mg QD, n = 12) was 0 n (%). The “Facial edema, all-grade TRAE” value (30 mg QD, n = 12) was 4 (33.3) n (%), the “Fatigue, Grade ≥ 3 TRAE” value (30 mg QD, n = 12) was 0 n (%) and the “Fatigue, all-grade TRAE” value (30 mg QD, n = 12) was 2 (16.7) n (%). The “Generalized oedema, Grade ≥ 3 TRAE” value (30 mg QD, n = 12) was 1 (8.3) n (%), the “Grade ≥ 3 TRAEs in all patients” value (30 mg QD, n = 12) was 7 (58.3) n (%) and the “Hyperglycemia, Grade ≥ 3 TRAE” value (30 mg QD, n = 12) was 7 (58.3) n (%). The “Hyperglycemia, all-grade TRAE” value (30 mg QD, n = 12) was 11 (91.7) n (%), the “Hyponatremia, all-grade TRAE” value (30 mg QD, n = 12) was 4 (33.3) n (%) and the “Mouth ulceration, Grade ≥ 3 TRAE” value (30 mg QD, n = 12) was 0 n (%). For the same compound, the “Nausea, Grade ≥ 3 TRAE” value (30 mg QD, n = 12) was 0 n (%), the “Nausea, all-grade TRAE” value (30 mg QD, n = 12) was 6 (50.0) n (%) and the “Peripheral edema, Grade ≥ 3 TRAE” value (30 mg QD, n = 12) was 0 n (%). The “Peripheral edema, all-grade TRAE” value (30 mg QD, n = 12) was 4 (33.3) n (%), the “Rash, Grade ≥ 3 TRAE” value (30 mg QD, n = 12) was 0 n (%) and the “Rash, all-grade TRAE” value (30 mg QD, n = 12) was 2 (16.7) n (%). The “TRAEs leading to death” value (30 mg QD, n = 12) was 0 n (%), the “TRAEs leading to dose discontinuation” value (30 mg QD, n = 12) was 1 (8.3) n (%) and the “TRAEs leading to dose interruption” value (30 mg QD, n = 12) was 10 (83.3) n (%). The “TRAEs leading to dose reduction” value (30 mg QD, n = 12) was 0 n (%), the “TRAEs occurring in ≥ 10% of patients” value (30 mg QD, n = 12) was 12 (100) n (%) and the “Treatment-related serious adverse events” value (30 mg QD, n = 12) was 1 (8.3) n (%). The “Vomiting, all-grade TRAE” value (30 mg QD, n = 12) was 3 (25.0) n (%), the “Weight loss, all-grade TRAE” value (30 mg QD, n = 12) was 4 (33.3) n (%) and the “White blood cell count decreased, Grade ≥ 3 TRAE” value (30 mg QD, n = 12) was 0 n (%). For the same compound, the “Blood glucose increased, Grade ≥ 3 TRAE” value (40 mg QD, n = 24) was 0 n (%), the “Decreased appetite, Grade ≥ 3 TRAE” value (40 mg QD, n = 24) was 1 (4.2) n (%) and the “Decreased appetite, all-grade TRAE” value (40 mg QD, n = 24) was 12 (50.0) n (%). The “Diabetic ketosis, Grade ≥ 3 TRAE” value (40 mg QD, n = 24) was 0 n (%), the “Diarrhea, Grade ≥ 3 TRAE” value (40 mg QD, n = 24) was 1 (4.2) n (%) and the “Diarrhea, all-grade TRAE” value (40 mg QD, n = 24) was 7 (29.2) n (%). For the same compound, the “Dizziness, Grade ≥ 3 TRAE” value (40 mg QD, n = 24) was 1 (4.2) n (%), the “Electrocardiogram QT prolonged” value (40 mg QD, n = 24) was 0 n (%) and the “Face oedema, Grade ≥ 3 TRAE” value (40 mg QD, n = 24) was 1 (4.2) n (%). For the same compound, the “Facial edema, all-grade TRAE” value (40 mg QD, n = 24) was 4 (16.7) n (%), the “Fatigue, Grade ≥ 3 TRAE” value (40 mg QD, n = 24) was 1 (4.2) n (%) and the “Fatigue, all-grade TRAE” value (40 mg QD, n = 24) was 6 (25.0) n (%). The “Generalized oedema, Grade ≥ 3 TRAE” value (40 mg QD, n = 24) was 0 n (%), the “Grade ≥ 3 TRAEs in all patients” value (40 mg QD, n = 24) was 19 (79.2) n (%) and the “Hyperglycemia, Grade ≥ 3 TRAE” value (40 mg QD, n = 24) was 17 (70.8) n (%). For the same compound, the “Hyperglycemia, all-grade TRAE” value (40 mg QD, n = 24) was 23 (95.8) n (%), the “Hyponatremia, all-grade TRAE” value (40 mg QD, n = 24) was 2 (8.3) n (%) and the “Mouth ulceration, Grade ≥ 3 TRAE” value (40 mg QD, n = 24) was 1 (4.2) n (%). The “Mouth ulceration, all-grade TRAE” value (40 mg QD, n = 24) was 5 (20.8) n (%), the “Nausea, Grade ≥ 3 TRAE” value (40 mg QD, n = 24) was 0 n (%) and the “Nausea, all-grade TRAE” value (40 mg QD, n = 24) was 9 (37.5) n (%). For the same compound, the “Peripheral edema, Grade ≥ 3 TRAE” value (40 mg QD, n = 24) was 4 (16.7) n (%), the “Peripheral edema, all-grade TRAE” value (40 mg QD, n = 24) was 8 (33.3) n (%) and the “Rash, Grade ≥ 3 TRAE” value (40 mg QD, n = 24) was 1 (4.2) n (%). The “Rash, all-grade TRAE” value (40 mg QD, n = 24) was 6 (25.0) n (%), the “TRAEs leading to death” value (40 mg QD, n = 24) was 0 n (%) and the “TRAEs leading to dose discontinuation” value (40 mg QD, n = 24) was 2 (8.3) n (%). The “TRAEs leading to dose interruption” value (40 mg QD, n = 24) was 19 (79.2) n (%), the “TRAEs leading to dose reduction” value (40 mg QD, n = 24) was 5 (20.8) n (%) and the “TRAEs occurring in ≥ 10% of patients” value (40 mg QD, n = 24) was 23 (95.8) n (%). The “Treatment-related serious adverse events” value (40 mg QD, n = 24) was 4 (16.7) n (%), the “Vomiting, all-grade TRAE” value (40 mg QD, n = 24) was 6 (25.0) n (%) and the “Weight loss, all-grade TRAE” value (40 mg QD, n = 24) was 9 (37.5) n (%). For the same compound, the “White blood cell count decreased, Grade ≥ 3 TRAE” value (40 mg QD, n = 24) was 1 (4.2) n (%), the DLT rate (40 mg dose level, 1 out of 6 DLT evaluable patients) was 16.7% and the “patients with DLT: grade 3 hyperglycemia” value (40 mg, dose-escalation stage (19 patients)) was 1. For the same compound, the “patients with DLT: grade 3 hyperglycemia and grade 3 nausea” value (60 mg, dose-escalation stage (19 patients)) was 2, the “Blood glucose increased, Grade ≥ 3 TRAE” value (1–20 mg QD, n = 10) was 0 n (%) and the “Decreased appetite, Grade ≥ 3 TRAE” value (1–20 mg QD, n = 10) was 0 n (%). For the same compound, the “Decreased appetite, all-grade TRAE” value (1–20 mg QD, n = 10) was 3 (30.0) n (%), the “Diabetic ketosis, Grade ≥ 3 TRAE” value (1–20 mg QD, n = 10) was 0 n (%) and the “Diarrhea, Grade ≥ 3 TRAE” value (1–20 mg QD, n = 10) was 0 n (%). For the same compound, the “Diarrhea, all-grade TRAE” value (1–20 mg QD, n = 10) was 3 (30.0) n (%), the “Dizziness, Grade ≥ 3 TRAE” value (1–20 mg QD, n = 10) was 0 n (%) and the “Electrocardiogram QT prolonged” value (1–20 mg QD, n = 10) was 1 (10.0) n (%). For the same compound, the “Face oedema, Grade ≥ 3 TRAE” value (1–20 mg QD, n = 10) was 0 n (%), the “Facial edema, all-grade TRAE” value (1–20 mg QD, n = 10) was 0 n (%) and the “Fatigue, Grade ≥ 3 TRAE” value (1–20 mg QD, n = 10) was 0 n (%). The “Fatigue, all-grade TRAE” value (1–20 mg QD, n = 10) was 1 (10.0) n (%).

Source: paper PMC9669016, “First-in-human phase Ia study of the PI3Kα inhibitor CYH33 in patients with solid tumors” (Nature Communications, 2022)
